Measurements taken from ChEMBL document CHEMBL3301448, “MMV Malaria Box screening against Toxoplasma gondii and Entamoeba histolytica”.

Key:
[1] = system: Toxoplasma gondii; assay: MMV: A total of 100ul of inoculum was added to each well (parasite/cell ratio, ~10:1; final volume, 200 ul). Six hours after inoculation, nonadherent parasites were removed, and 100 ul of complete DMEM (1% penicillin-streptomycin, 3% FBS) supplemented with inhibitors at different concentrations (2-fold serial dilutions starting from 30 uM) was added to all except the negative-control wells. Positive controls, consisting of pyrimethamine (PYR) and sulfadiazine (SDZ) (20-mg/ml stocks in DMSO), were tested at a 2mg/ml final concentration. Each test was performed in triplicate.; format: functional, organism-based; settings: 6 h
[2] = system: Entamoeba histolytica; assay: MMV: Primary screening was performed with each compound at a 30 uM final concentration and in triplicate in sealed 96-well polystyrene microtiter plates. Parasite inocula (100 ul) comprising 20000 parasites/ml were added to each well and grown at 37 degrees C in a humidified atmosphere of 5% CO2 for 72 h. Positive controls consisted of metronidazole at 1 mg/ml. The growth of E. histolytica trophozoites in each well was determined microscopically by measuring the diameters of the confluent cells in drug-containing wells relative to those in the nega- tive-control wells.; format: functional, organism-based

Structure (SMILES): COc1ccc(-c2cc3c(nn2)-c2ccccc2C3=O)cc1
- IC50 [1]: > 30 µM
- IC50 [2]: > 30 µM

Structure (SMILES): COc1ccc(C2c3ccc4ccccc4c3Oc3ncn(CCCN(C)C)c(=N)c32)cc1 (configuration not stated)
- IC50 [1]: > 30 µM
- IC50 [2]: > 30 µM

Structure (SMILES): Nc1nc(Nc2cccc(F)c2)nc2ccccc12
- IC50 [1]: 29 µM
- IC50 [2]: > 30 µM

Structure (SMILES): COc1ccc(/C=C2/SC(=Nc3ccccc3)NC2=O)cc1
- IC50 [1]: > 30 µM
- IC50 [2]: > 30 µM

Structure (SMILES): c1ccc(/C2=N/c3ccccc3/N=C(/c3ccccc3)c3ccccc32)cc1
- IC50 [1]: > 30 µM
- IC50 [2]: > 30 µM

Structure (SMILES): O=C(NC1CCN(Cc2ccccc2)CC1)c1cc2nc(-c3ccc(Cl)s3)cc(C(F)(F)F)n2n1
- IC50 [1]: > 30 µM
- IC50 [2]: > 30 µM

Structure (SMILES): Cc1sc(NC(=O)c2ccccc2)c(C(c2cccs2)N2CCN(c3ccccc3)CC2)c1C (configuration not stated)
- IC50 [1]: > 30 µM
- IC50 [2]: > 30 µM

Structure (SMILES): CCOC(=O)c1c(C)n(-c2ccccc2)c2ccc(OC(=O)c3cc(OC)c(OC)c(OC)c3)cc12
- IC50 [1]: > 30 µM
- IC50 [2]: > 30 µM

Structure (SMILES): N#Cc1nc(Cc2cccc3ccccc23)oc1N1CCN(C(c2ccccc2)c2ccccc2)CC1
- IC50 [1]: > 30 µM
- IC50 [2]: > 30 µM

Structure (SMILES): COc1ccc(C2c3ccc4ccccc4c3Oc3ncn(CCCn4ccnc4)c(=N)c32)cc1OC (configuration not stated)
- IC50 [1]: > 30 µM
- IC50 [2]: > 30 µM

Structure (SMILES): CN(N=O)C1=C(NC2CCCCC2)C(=O)c2ccccc2C1=O
- IC50 [1]: > 30 µM
- IC50 [2]: > 30 µM

Structure (SMILES): CCOc1ccc(N2C(N)=NC(N)=NC2(C)C)cc1
- IC50 [1]: > 30 µM
- IC50 [2]: > 30 µM

Structure (SMILES): COc1cccc(Nc2nc(N)c3ccccc3n2)c1
- IC50 [1]: 28.1 µM
- IC50 [2]: > 30 µM

Structure (SMILES): Cc1ccc(C(=O)c2oc3ccc4c(C)cc(=O)oc4c3c2C)cc1
- IC50 [1]: > 30 µM
- IC50 [2]: > 30 µM

Structure (SMILES): COc1ccc(CN2CCCC(C(=O)c3ccc(C(F)(F)F)cc3)C2)c(O)c1 (configuration not stated)
- IC50 [1]: > 30 µM
- IC50 [2]: > 30 µM

Structure (SMILES): CCCCCCc1cc2cc(-c3csc(C=Cc4ccccc4)n3)c(=O)oc2cc1O
- IC50 [1]: > 30 µM
- IC50 [2]: > 30 µM

Structure (SMILES): O=C(CCl)NCCOc1ccc(Cl)cc1Cl
- IC50 [1]: > 30 µM
- IC50 [2]: > 30 µM

Structure (SMILES): Oc1ccc(-c2nc(-c3ccc4oc5ccc(-c6[nH]c(-c7ccc(O)cc7)nc6-c6ccccc6)cc5c4c3)c(-c3ccccc3)[nH]2)cc1
- IC50 [1]: > 30 µM
- IC50 [2]: > 30 µM

Structure (SMILES): CC(Oc1ccc(NC(=O)c2cccs2)cc1)C(=O)c1ccc(Cl)cc1 (configuration not stated)
- IC50 [1]: 10.5 µM
- IC50 [2]: > 30 µM

Structure (SMILES): COc1ccc(CNC(=O)c2cc3c(=O)n4ccccc4nc3n(CCc3ccccc3)c2=N)cc1
- IC50 [1]: > 30 µM
- IC50 [2]: > 30 µM

Structure (SMILES): Brc1ccc(Nc2nc3ccccc3nc2Nc2ccc(Br)cc2)cc1
- IC50 [1]: > 30 µM
- IC50 [2]: > 30 µM

Structure (SMILES): O=C(NC1CCN(Cc2ccccc2)CC1)c1cc(C(=O)NC2CCN(Cc3ccccc3)CC2)cc(C(=O)NC2CCN(Cc3ccccc3)CC2)c1
- IC50 [1]: > 30 µM
- IC50 [2]: > 30 µM

Structure (SMILES): COc1ccc(CCn2c(=N)c(C(=O)NCc3cccnc3)cc3c(=O)n4cccc(C)c4nc32)cc1
- IC50 [1]: > 30 µM
- IC50 [2]: > 30 µM

Structure (SMILES): COc1ccc(-c2cn3c(C(=O)Nc4ccccc4Cl)c(-c4ccccc4)c4c3n2CCCC4)cc1
- IC50 [1]: > 30 µM
- IC50 [2]: > 30 µM

Structure (SMILES): Cn1c(=O)n(C)c2cc(CNCCNc3ccnc4cc(Cl)ccc34)ccc21
- IC50 [1]: > 30 µM
- IC50 [2]: > 30 µM

Structure (SMILES): Cc1cc(Nc2ccc(OCc3ccccc3)cc2)nc2cc(O)ccc12
- IC50 [1]: > 30 µM
- IC50 [2]: > 30 µM

Structure (SMILES): CCN(CC)CCNc1ccnc2cc3ccccc3cc12
- IC50 [1]: > 30 µM
- IC50 [2]: > 30 µM

Structure (SMILES): CCOc1ccc2nc(C)cc(Nc3ccc(N(C)C)cc3)c2c1
- IC50 [1]: > 30 µM
- IC50 [2]: > 30 µM

Structure (SMILES): COc1ccc(Nc2cc(C)nc(NCc3ccccc3)n2)cc1
- IC50 [1]: > 30 µM
- IC50 [2]: > 30 µM

Structure (SMILES): N=c1c2ccccc2nnn1-c1cccc(C(F)(F)F)c1
- IC50 [1]: > 30 µM
- IC50 [2]: > 30 µM

Structure (SMILES): COc1cc(-c2nc(-c3ccc(Sc4ccccc4)cc3)c(-c3ccccc3)[nH]2)cc(OC)c1O
- IC50 [1]: 5.85 µM
- IC50 [2]: > 30 µM

Structure (SMILES): COc1ccc(C=C2SC(Nc3ccc(F)cc3)=NC2=O)c(OC)c1
- IC50 [1]: > 30 µM
- IC50 [2]: > 30 µM

Structure (SMILES): O=C1c2ccc3c4c(ccc(c24)C(=O)N1CCCCO)C(=O)N(CCCCO)C3=O
- IC50 [1]: > 30 µM
- IC50 [2]: > 30 µM

Structure (SMILES): O=C(Nc1ccc(-c2nc3cc(NC(=O)c4ccc(Cl)cc4)ccc3[nH]2)cc1)c1ccc(Cl)cc1
- IC50 [1]: > 30 µM
- IC50 [2]: > 30 µM

Structure (SMILES): OC(Cn1nnc2ccccc21)Cn1c2ccc(Br)cc2c2cc(Br)ccc21 (configuration not stated)
- IC50 [1]: > 30 µM
- IC50 [2]: > 30 µM

Structure (SMILES): CCOC(=O)c1cnc2ccc(OC)cc2c1Nc1ccc(N2CCN(C)CC2)cc1
- IC50 [1]: > 30 µM
- IC50 [2]: > 30 µM

Structure (SMILES): COc1ccccc1C(=O)ON=C(N)Cc1cccc2ccccc12
- IC50 [1]: > 30 µM
- IC50 [2]: > 30 µM

Structure (SMILES): COc1ccc(C(=O)C(CCC(CNC(C)(C)C)C(=O)c2ccc(OC)cc2)CNC(C)(C)C)cc1 (configuration not stated)
- IC50 [1]: 8.23 µM
- IC50 [2]: > 30 µM

Structure (SMILES): CCOc1cc2c(cc1OCC)C(c1cc(Cl)ccc1O)NCC2 (configuration not stated)
- IC50 [1]: > 30 µM
- IC50 [2]: > 30 µM

Structure (SMILES): CN1C=C(c2ccc3ccccc3n2)C(c2c[nH]c3ccccc23)c2ccccc21 (configuration not stated)
- IC50 [1]: > 30 µM
- IC50 [2]: > 30 µM

Structure (SMILES): Cc1ccc(-c2nc3ccccc3o2)cc1NCc1cc(Cc2ccccc2)ccc1O
- IC50 [1]: > 30 µM
- IC50 [2]: > 30 µM

Structure (SMILES): OC(CNC1CCCCC1)Cn1c2ccc(I)cc2c2cc(I)ccc21 (configuration not stated)
- IC50 [1]: > 30 µM
- IC50 [2]: > 30 µM

Structure (SMILES): COc1ccc(C(O)(CCC(C)C)C(CN2CCOCC2)c2ccc(Cl)cc2)cc1 (configuration not stated)
- IC50 [1]: > 30 µM
- IC50 [2]: > 30 µM

Structure (SMILES): O=C(Cc1ccccc1)NC(c1ccc(Cl)cc1)c1c(O)ccc2ccccc12 (configuration not stated)
- IC50 [1]: > 30 µM
- IC50 [2]: > 30 µM

Structure (SMILES): COc1cc(CNCCc2ccc(Cl)cc2)cc(OC)c1O
- IC50 [1]: > 30 µM
- IC50 [2]: > 30 µM

Structure (SMILES): c1ccc(CNc2nc(Nc3ccccc3)nc3ccccc23)cc1
- IC50 [1]: > 30 µM
- IC50 [2]: > 30 µM

Structure (SMILES): Cc1cccc(N2C(=O)C3C(C2=O)C2(c4ccccc4)C(=O)C3(c3ccccc3)C(c3ccc4c(c3)OCO4)=C2c2ccc3c(c2)OCO3)c1 (configuration not stated)
- IC50 [1]: > 30 µM
- IC50 [2]: > 30 µM

Structure (SMILES): Oc1ccc(Br)cc1CN1CCN(Cc2ccc(Cl)cc2)CC1
- IC50 [1]: 14.5 µM
- IC50 [2]: > 30 µM

Structure (SMILES): Cc1ccc(F)cc1NC(=O)c1cc(Cl)ccc1Nc1ccccc1
- IC50 [1]: > 30 µM
- IC50 [2]: > 30 µM

Structure (SMILES): CCOc1ccc2nc(C)cc(Nc3ccc(Br)cc3)c2c1
- IC50 [1]: > 30 µM
- IC50 [2]: > 30 µM

Structure (SMILES): COc1cc2c3cc1Oc1c(OC)c(OC)cc4c1C(Cc1ccc(O)c(c1)Oc1ccc(cc1)CC3N(C)CC2)N(C)CC4 (configuration not stated)
- IC50 [1]: > 30 µM
- IC50 [2]: > 30 µM

Structure (SMILES): CCCCCCc1cc2cc(-c3nc4ccccc4[nH]3)c(=Nc3ccccc3C)oc2cc1O
- IC50 [1]: 6.28 µM
- IC50 [2]: > 30 µM

Structure (SMILES): CCOc1c(Br)cc(C2C(C(=O)OC)=CN(C)C=C2C(=O)OC)cc1OC
- IC50 [1]: > 30 µM
- IC50 [2]: > 30 µM

Structure (SMILES): COc1ccc2sc(N(Cc3cccnc3)C(=O)c3ccc(C#N)cc3)nc2c1
- IC50 [1]: > 30 µM
- IC50 [2]: > 30 µM

Structure (SMILES): CC1CC2=C(CC1CNCCCN(C)C)C(C)(C)CCC2 (configuration not stated)
- IC50 [1]: > 30 µM
- IC50 [2]: > 30 µM

Structure (SMILES): CN(C)c1ccc(N=Cc2ccc(N3CCOCC3)cc2)cc1
- IC50 [1]: > 30 µM
- IC50 [2]: > 30 µM

Structure (SMILES): CCOC(=O)c1cnc2ccc(OC)cc2c1NCc1ccccc1
- IC50 [1]: > 30 µM
- IC50 [2]: > 30 µM

Structure (SMILES): CCOC(=O)C1=CN(C)C=C(C(=O)OCC)C1c1cc(Br)c(OCC)c(OC)c1
- IC50 [1]: > 30 µM
- IC50 [2]: > 30 µM

Structure (SMILES): CC(C)(C)c1ccc(C2CC3=Nc4ccccc4N(C(=O)c4ccccc4Cl)C(c4ccc(F)cc4)C3=C(O)C2)cc1 (configuration not stated)
- IC50 [1]: > 30 µM
- IC50 [2]: > 30 µM

Structure (SMILES): CN1CCN(c2nc(Nc3ccc(O)cc3)nc3ccccc23)CC1
- IC50 [1]: > 30 µM
- IC50 [2]: > 30 µM

Structure (SMILES): CCCCc1c(CCC)c(=N)c2ccccc2n1C
- IC50 [1]: > 30 µM
- IC50 [2]: > 30 µM
